Reference: PubChem BioAssay (NCI)
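GI50: concentration for 50% inhibition of growth. TGI marks complete inhibition of growth.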

Experiments:
Assay in all cases: growth of human tumour cells (NCI), 384-well format
SK-OV-3 ovarian = system: SK-OV-3 ovarian
HL-60(TB) leukemia = system: HL-60(TB) leukemia
SF-539 CNS = system: SF-539 CNS
T-47D breast = system: T-47D breast
BT-549 breast = system: BT-549 breast
CCRF-CEM leukemia = system: CCRF-CEM leukemia
HCT-15 colon = system: HCT-15 colon
ACHN renal = system: ACHN renal
MDA-MB-435 melanoma = system: MDA-MB-435 melanoma
DU-145 prostate = system: DU-145 prostate
NCI-H23 lung = system: NCI-H23 lung
SF-295 CNS = system: SF-295 CNS
HOP-92 NSCLC = system: HOP-92 NSCLC
HOP-62 NSCLC = system: HOP-62 NSCLC
RPMI-8226 leukemia = system: RPMI-8226 leukemia
PC-3 prostate = system: PC-3 prostate
SW-620 colon = system: SW-620 colon
RXF 393 renal = system: RXF 393 renal
SK-MEL-28 melanoma = system: SK-MEL-28 melanoma
NCI-H322M lung = system: NCI-H322M lung
M14 melanoma = system: M14 melanoma
UO-31 renal = system: UO-31 renal
MDA-MB-468 breast = system: MDA-MB-468 breast
MCF7 breast = system: MCF7 breast
SNB-19 CNS = system: SNB-19 CNS
SK-MEL-2 melanoma = system: SK-MEL-2 melanoma
TK-10 renal = system: TK-10 renal
OVCAR-8 ovarian = system: OVCAR-8 ovarian
HS 578T breast = system: HS 578T breast
CAKI-1 renal = system: CAKI-1 renal
OVCAR-3 ovarian = system: OVCAR-3 ovarian
HT29 colon = system: HT29 colon
NCI/ADR-RES ovarian = system: NCI/ADR-RES ovarian
LOX IMVI melanoma = system: LOX IMVI melanoma
A498 renal = system: A498 renal
786-0 renal = system: 786-0 renal
MALME-3M melanoma = system: MALME-3M melanoma
OVCAR-5 ovarian = system: OVCAR-5 ovarian
A549 NSCLC = system: A549 NSCLC
IGROV1 ovarian = system: IGROV1 ovarian
UACC-62 melanoma = system: UACC-62 melanoma
NCI-H226 lung = system: NCI-H226 lung
NCI-H522 lung = system: NCI-H522 lung
OVCAR-4 ovarian = system: OVCAR-4 ovarian
SN12C renal = system: SN12C renal
KM12 colon = system: KM12 colon
EKVX NSCLC = system: EKVX NSCLC
UACC-257 melanoma = system: UACC-257 melanoma
SF-268 CNS = system: SF-268 CNS
SNB-75 CNS = system: SNB-75 CNS
MDA-MB-231 breast = system: MDA-MB-231 breast
K-562 leukemia = system: K-562 leukemia
HCT-116 colon = system: HCT-116 colon
U251 glioblastoma = system: U251 glioblastoma
MOLT-4 leukemia = system: MOLT-4 leukemia

SMILES: Cn1nnc2c(C(N)=O)ncn2c1=O
- GI50 (SK-OV-3 ovarian): > 100 µM
- TGI (SK-OV-3 ovarian): > 100 µM
- GI50 (HL-60(TB) leukemia): > 100 µM
- TGI (HL-60(TB) leukemia): > 100 µM
- GI50 (SF-539 CNS): > 100 µM
- TGI (SF-539 CNS): > 100 µM
- GI50 (T-47D breast): > 100 µM
- TGI (T-47D breast): > 100 µM
- GI50 (BT-549 breast): > 100 µM
- TGI (BT-549 breast): > 100 µM
- GI50 (CCRF-CEM leukemia): > 100 µM
- TGI (CCRF-CEM leukemia): > 100 µM
- GI50 (HCT-15 colon): > 100 µM
- TGI (HCT-15 colon): > 100 µM
- GI50 (ACHN renal): > 100 µM
- TGI (ACHN renal): > 100 µM
- GI50 (MDA-MB-435 melanoma): > 100 µM
- TGI (MDA-MB-435 melanoma): > 100 µM
- GI50 (DU-145 prostate): > 100 µM
- TGI (DU-145 prostate): > 100 µM
- GI50 (NCI-H23 lung): > 100 µM
- TGI (NCI-H23 lung): > 100 µM
- GI50 (SF-295 CNS): > 100 µM
- TGI (SF-295 CNS): > 100 µM
- GI50 (HOP-92 NSCLC): > 100 µM
- TGI (HOP-92 NSCLC): > 100 µM
- GI50 (HOP-62 NSCLC): > 100 µM
- TGI (HOP-62 NSCLC): > 100 µM
- GI50 (RPMI-8226 leukemia): > 100 µM
- TGI (RPMI-8226 leukemia): > 100 µM
- GI50 (PC-3 prostate): > 100 µM
- TGI (PC-3 prostate): > 100 µM
- GI50 (SW-620 colon): > 100 µM
- TGI (SW-620 colon): > 100 µM
- GI50 (RXF 393 renal): > 100 µM
- TGI (RXF 393 renal): > 100 µM
- GI50 (SK-MEL-28 melanoma): > 100 µM
- TGI (SK-MEL-28 melanoma): > 100 µM
- GI50 (NCI-H322M lung): > 100 µM
- TGI (NCI-H322M lung): > 100 µM
- GI50 (M14 melanoma): > 100 µM
- TGI (M14 melanoma): > 100 µM
- GI50 (UO-31 renal): > 100 µM
- TGI (UO-31 renal): > 100 µM
- GI50 (MDA-MB-468 breast): > 100 µM
- TGI (MDA-MB-468 breast): > 100 µM
- GI50 (MCF7 breast): > 100 µM
- TGI (MCF7 breast): > 100 µM
- GI50 (SNB-19 CNS): > 100 µM
- TGI (SNB-19 CNS): > 100 µM
- GI50 (SK-MEL-2 melanoma): > 100 µM
- TGI (SK-MEL-2 melanoma): > 100 µM
- GI50 (TK-10 renal): > 100 µM
- TGI (TK-10 renal): > 100 µM
- GI50 (OVCAR-8 ovarian): > 100 µM
- TGI (OVCAR-8 ovarian): > 100 µM
- GI50 (HS 578T breast): > 100 µM
- TGI (HS 578T breast): > 100 µM
- GI50 (CAKI-1 renal): > 100 µM
- TGI (CAKI-1 renal): > 100 µM
- GI50 (OVCAR-3 ovarian): > 100 µM
- TGI (OVCAR-3 ovarian): > 100 µM
- GI50 (HT29 colon): > 100 µM
- TGI (HT29 colon): > 100 µM
- GI50 (NCI/ADR-RES ovarian): > 100 µM
- TGI (NCI/ADR-RES ovarian): > 100 µM
- GI50 (LOX IMVI melanoma): > 100 µM
- TGI (LOX IMVI melanoma): > 100 µM
- GI50 (A498 renal): > 100 µM
- TGI (A498 renal): > 100 µM
- GI50 ([…]-0 renal): > 100 µM
- TGI (786-0 renal): > 100 µM
- GI50 (MALME-3M melanoma): > 100 µM
- TGI (MALME-3M melanoma): > 100 µM
- GI50 (OVCAR-5 ovarian): > 100 µM
- TGI (OVCAR-5 ovarian): > 100 µM
- GI50 (A549 NSCLC): > 100 µM
- TGI (A549 NSCLC): > 100 µM
- GI50 (IGROV1 ovarian): > 100 µM
- TGI (IGROV1 ovarian): > 100 µM
- GI50 (UACC-62 melanoma): > 100 µM
- TGI (UACC-62 melanoma): > 100 µM
- GI50 (NCI-H226 lung): > 100 µM
- TGI (NCI-H226 lung): > 100 µM
- GI50 (NCI-H522 lung): > 100 µM
- TGI (NCI-H522 lung): > 100 µM
- GI50 (OVCAR-4 ovarian): > 100 µM
- TGI (OVCAR-4 ovarian): > 100 µM
- GI50 (SN12C renal): > 100 µM
- TGI (SN12C renal): > 100 µM
- GI50 (KM12 colon): > 100 µM
- TGI (KM12 colon): > 100 µM
- GI50 (EKVX NSCLC): > 100 µM
- TGI (EKVX NSCLC): > 100 µM
- GI50 (UACC-257 melanoma): > 100 µM
- TGI (UACC-257 melanoma): > 100 µM
- GI50 (SF-268 CNS): > 100 µM
- TGI (SF-268 CNS): > 100 µM
- GI50 (SNB-75 CNS): > 100 µM
- TGI (SNB-75 CNS): > 100 µM
- GI50 (MDA-MB-231 breast): > 100 µM
- TGI (MDA-MB-231 breast): > 100 µM
- GI50 (K-562 leukemia): > 100 µM
- TGI (K-562 leukemia): > 100 µM
- GI50 (HCT-116 colon): > 100 µM
- TGI (HCT-116 colon): > 100 µM
- GI50 (U251 glioblastoma): > 100 µM
- TGI (U251 glioblastoma): > 100 µM
- GI50 (MOLT-4 leukemia): > 100 µM
- TGI (MOLT-4 leukemia): > 100 µM
